# Data as given in patent publication US20140308261A1, “HLA-DR7 HY epitope and method for treating leukaemia” (Etablissement Français du Sang, priority 2011, published 2014).
# Test system: CD4^+ T-lymphocytes
# Test: Cytokine mRNA expression profile after stimulation of CD4+ T-lymphocytes with short peptides from QR-40 pulsed on HLA-DR7 EBV cells
# Type: cell-based, human
# Excerpt: The total RNA of the clones or cell lines was isolated from 1×10^6 cells by using the Rnagent kit (Promega, Madison, Wis., United States). The total RNA was converted to single stranded cDNA by using an oligo (dT) primer (Amersham Pharmacia Biotech, Orsay, France) and the reverse transcriptase of the avian myeloblastosis virus, in conformance with the manufacturer's specifications (Promega).
# HY-specific CD4^+ T-lymphocytes were stimulated, each with […] EBV-B LCL transduced with the HY gene. The proliferation and production of IFN-γ were measured by the incorporation of ^3H-[methyl-thymidine] on day 3, and ELISA on day 1. To map the precise T-lymphocyte epitope restricted to the MHC class II, the inventors synthesized several long peptides with a potential bond with DRB1*0701 encoded in the RPS4Y regions which are different from RPS4X, based on several databases for MHC peptide binding, such as SYFPEITHI, Net-MHC, Propred and HotSpot Hunter. These peptides were tested at various concentrations: from 100 μM to 10 nM, using […] EBV-B-LCLs that express the HLA-DRB1*0701 molecule in the form of APC. The short peptide in question was identified using a series of peptides of 15 amino acids, also identified from these databases, and which are present in the long peptide which induces a positive response.
# The inventors were therefore able to identify TGKIINFIKFDTGNL (SEQ ID NO: 1) as the HY peptide epitope recognized by the CD4^+ T-lymphocytes (FIG. 6). […] It is interesting to note that the cloned T-lymphocytes presented the same cytokine profile as the T-lymphocyte cell line.
# [1] = female HLA-DR7 EBV cells pulsed with peptide
Sequence,FoxP3/CD3ε mRNA ratio (peptide 1 μM),IFNγ/CD3ε mRNA ratio (peptide 1 μM),IL2/CD3ε mRNA ratio (peptide 1 μM),FoxP3/CD3ε mRNA ratio (peptide 10 μM),IFNγ/CD3ε mRNA ratio (peptide 10 μM),IL2/CD3ε mRNA ratio (peptide 10 μM),stimulation of the CD4+ T-lymphocytes by 15-mer peptides in QR-40 (in words) (Table 9),FoxP3 mRNA response (in words) (at 1 μM),IFNγ mRNA induction (in words) [1],IL-2 mRNA expression (in words) [1]
GKIINFIKFDTGNLCMV (Peptide GV17) [short peptide from peptide QR-40],0.12,0.12,0.02,0.27,0.82,0.02,,,,
TGKIINFIKFDTGNL (peptide TL15) [HY epitopic 15-mer peptide from RPS4Y presented by HLA-DR7],0.42,9.91,0.06,0.44,12.63,0.23,stimulated the cells,highest FoxP3 mRNA response,specific IFNγ induction,low IL-2 mRNA expression
TGNLCMVIGGANLGRVG (Peptide TG17-1) [short peptide from peptide QR-40],0.12,0.11,0.006,0.32,0.11,0.02,,,,
TGNVCMVIAGANLGRVG (Peptide TG17-2) [short peptide tested with the QR-40 peptides],0.23,0.009,0.0047,0.3,0.5,0.01,,,,
